Measurements as given in US20100029689A1, “PHOSPHODIESTERASE 4 INHIBITORS” (MEMORY PHARMACEUTICALS CORPORATION, priority 2008, published 2010).

melting point [°C] | Structure (SMILES)
143.7 to 145.9 | COc1ccc(N(Cc2ccc(=O)[nH]c2)c2ccc(C(=O)O)cc2)cc1OC1CCCC1 [Compound 29]
65.6 to 70.6 | COc1ccc(N(Cc2cncs2)c2cccc(C(=O)O)c2)cc1OC1CCCC1 [Compound 35]
108.9 to 112.3 | COc1ccc(N(Cc2cn[nH]c2)c2ccc(C(=O)O)cc2)cc1OC1CCCC1 [Compound 39]
88 to 90.3 | COc1ccc(N(Cc2cncs2)c2ccc(C(=O)O)cc2)cc1OC1CCCC1 [Compound 40]
156.6 to 159.8 | COc1ccc(N(Cc2cncnc2)c2ccc(C(=O)O)cc2)cc1OC1CCCC1 [Compound 43]
75.5 to 77.7 | COc1ccc(N(Cc2cscn2)c2cccc(C(=O)O)c2)cc1OC1CCCC1 [Compound 45]
178.9 to 184.3 | COc1ccc(N(Cc2cccnn2)c2cccc(C(=O)O)c2)cc1OC1CCCC1 [Compound 48]
228.8 to 232.1 | COc1ccc(N(CC2CCNCC2)c2cccc(C(=O)O)c2)cc1OC1CCCC1 [Compound 50]
95.9 to 99.5 | COc1ccc(N(Cc2cnc(N(C)C)nc2)c2ccc(C(=O)O)cc2)cc1OC1CCCC1 [Compound 51]
82 to 84.7 | COc1ccc(N(Cc2cnc(N(C)C)nc2)c2cccc(C(=O)O)c2)cc1OC1CCCC1 [Compound 52]
144.3 to 145.7 | O=C(O)c1ccc(N(Cc2cncs2)c2ccc(OC(F)F)c(OC(F)F)c2)cc1 [Compound 59]
107.4 to 108.1 | O=C(O)Cc1ccc(N(Cc2cccnc2)c2ccc(OC(F)F)c(OC(F)F)c2)cc1 [Compound 69]
60.3 to 61.9 | COc1ccc(N(Cc2cncs2)c2cccc(C(=O)O)c2)cc1O[C@@H]1CCOC1 [Compound 70]
60.3 to 60.8 | COc1ccc(N(Cc2cncs2)c2ccc(C(=O)O)cc2)cc1O[C@@H]1CCOC1 [Compound 71]
128.7 to 129.4 | COc1ccc(N(Cc2cncs2)c2ccc(C(=O)O)cc2)cc1OCC1CC1 [Compound 72]
137.4 to 139.4 | COc1ccc(N(Cc2cncs2)c2cccc(C(=O)O)c2)cc1OCC1CC1 [Compound 73]
162.6 to 164.8 | O=C(O)c1ccc(N(Cc2cccnn2)c2ccc(OC(F)F)c(OC(F)F)c2)cc1 [Compound 74]
186.7 to 187.4 | O=C(O)c1ccc(N(Cc2cncnc2)c2ccc(OC(F)F)c(OC(F)F)c2)cc1 [Compound 80]
67 to 69.3 | CCOc1cc(N(Cc2cncs2)c2ccc(C(=O)O)cc2)ccc1OC(F)F [Compound 99]
67.3 to 69.7 | O=C(O)c1ccc(N(Cc2cncs2)c2ccc(OC(F)F)c(OC3CCCC3)c2)cc1 [Compound 104]
158 to 158.5 | CC(C)Oc1cc(N(Cc2cncs2)c2ccc(C(=O)O)cc2)ccc1OC(F)F [Compound 106]
66.5 to 67.9 | CC(C)Oc1cc(N(Cc2cccnc2)c2ccc(C(=O)O)cc2)ccc1OC(F)F [Compound 107]
57.3 to 58.9 | CC(C)Oc1cc(N(Cc2cccnc2)c2cccc(C(=O)O)c2)ccc1OC(F)F [Compound 108]

melting point [°C] | Structure (SMILES)
58.6 to 60 | CC(C)Oc1cc(N(Cc2cncs2)c2cccc(C(=O)O)c2)ccc1OC(F)F [Compound 109]
56.3 to 58 | O=C(O)c1cccc(N(Cc2cncs2)c2ccc(OC(F)F)c(OC3CCCC3)c2)c1 [Compound 110]
164.9 to 165.3 | COc1cc(N(Cc2cncs2)c2ccc(C(=O)O)cc2)ccc1OC(F)F [Compound 120]
182.4 to 183.4 | COc1cc(N(Cc2cccnc2)c2ccc(C(=O)O)cc2)ccc1OC(F)F [Compound 124]
133.7 to 135.1 | CCCCOc1cc(N(Cc2cccnc2)c2ccc(C(=O)O)cc2)ccc1OC(F)F [Compound 128]
158.7 to 159.5 | CCCCOc1cc(N(Cc2cncs2)c2ccc(C(=O)O)cc2)ccc1OC(F)F [Compound 129]
73.1 to 74.5 | CCOc1cc(N(Cc2cncs2)c2ccc(C(=O)O)cc2)ccc1OC [Compound 130]
67.8 to 69.1 | COc1ccc(N(Cc2cncs2)c2ccc(C(=O)O)cc2)cc1OC(C)C [Compound 131]
86.4 to 88.3 | COc1ccc(N(Cc2cncs2)c2ccc(C(=O)O)cc2)cc1OC [Compound 138]
132.4 to 135 | O=C(O)c1ccc(N(Cc2cnco2)c2ccc(OC(F)F)c(OC(F)F)c2)cc1 [Compound 141]
158 to 161.1 | O=C(O)c1ccc(N(Cc2cnccn2)c2ccc(OC(F)F)c(OC(F)F)c2)cc1 [Compound 142]
165.3 to 165.9 | CCOc1cc(N(Cc2cncnc2)c2ccc(C(=O)O)cc2)ccc1OC(F)F [Compound 143]
111.1 to 113 | CCOc1cc(N(Cc2cnco2)c2ccc(C(=O)O)cc2)ccc1OC(F)F [Compound 144]
86.4 to 88.3 | COc1ccc(N(Cc2cncs2)c2cccc(C(=O)O)c2)cc1OC(F)F [Compound 149]
86.4 to 88.3 | COc1ccc(N(Cc2cncs2)c2ccc(C(=O)O)cc2)cc1OC(F)F [Compound 150]
191.3 to 191.5 | COc1cc(N(Cc2cncnc2)c2ccc(C(=O)O)cc2)ccc1OC(F)F [Compound 153]
157.2 to 157.7 | COc1cc(N(Cc2cnccn2)c2ccc(C(=O)O)cc2)ccc1OC(F)F [Compound 154]
132.3 to 135.7 | CC(C)Oc1cc(N(Cc2cnccn2)c2ccc(C(=O)O)cc2)ccc1OC(F)F [Compound 155]
81.2 to 82 | CC(C)Oc1cc(N(Cc2cnccn2)c2cccc(C(=O)O)c2)ccc1OC(F)F [Compound 156]
81.2 to 82.3 | O=C(O)c1ccc(N(Cc2cnccn2)c2ccc(OC(F)F)c(OCC3CC3)c2)cc1 [Compound 157]
72.7 to 73.1 | O=C(O)c1cccc(N(Cc2cnccn2)c2ccc(OC(F)F)c(OCC3CC3)c2)c1 [Compound 159]
121.7 to 123.1 | CC(C)Oc1cc(N(Cc2cncs2)c2cncc(C(=O)O)c2)ccc1OC(F)F [Compound 160]
105.5 to 106.4 | CNS(=O)(=O)c1ccc(N(Cc2cncs2)c2ccc(OC(F)F)c(OC(F)F)c2)cc1 [Compound 165]

melting point [°C] | Structure (SMILES)
265.1 to 266.6 | O=C(O)c1ccc(N(Cc2cncnc2)c2ccc(OC(F)F)c(OCC3CC3)c2)cc1 [Compound 168]
77 to 79 | CCOc1ccc(N(Cc2cncs2)c2ccc(C(=O)O)cc2)cc1OCC [Compound 170]
60.3 to 61 | COc1ccc(N(Cc2cnco2)c2ccc(C(=O)O)cc2)cc1OC(C)C [Compound 180]
175.6 to 176.9 | CCOc1cc(N(Cc2cnco2)c2ccc(C(=O)O)cc2)ccc1OC [Compound 181]
160 to 161.7 | COc1ccc(N(Cc2cnco2)c2ccc(C(=O)O)cc2)cc1OCC1CC1 [Compound 183]
148 to 150.3 | COc1ccc(N(Cc2cnco2)c2ccc(C(=O)O)cc2)cc1OC1CCC1 [Compound 184]
208.7 to 209.9 | COc1cc(N(Cc2cncnc2)c2ccc(C(=O)O)cc2)ccc1OCC(F)(F)F [Compound 186]
181.7 to 183.6 | COc1ccc(N(Cc2cncnc2)c2ccc(C(=O)O)cc2)cc1OC(C)C [Compound 192]
174 to 177.9 | COc1ccc(N(Cc2cncnc2)c2ccc(C(=O)O)cc2)cc1OC1CCC1 [Compound 193]
185.6 to 187.2 | COc1ccc(N(Cc2cncnc2)c2ccc(C(=O)O)cc2)cc1OCC1CC1 [Compound 195]
190.9 to 191.9 | CCOc1cc(N(Cc2cncnc2)c2ccc(C(=O)O)cc2)ccc1OC [Compound 196]
60.2 to 61 | O=C(O)c1cccc(N(Cc2cnco2)c2ccc(OC(F)F)c(OCC3CC3)c2)c1 [Compound 198]
158 to 159.8 | CCOc1cc(N(Cc2cnco2)c2cccc(C(=O)O)c2)ccc1OC [Compound 200]
135.1 to 136.3 | O=C(O)c1ccc(N(Cc2cncnc2)c2ccc(OC(F)F)c(OC3CCC3)c2)cc1 [Compound 205]
157.4 to 158.2 | O=C(O)c1ccc(N(Cc2cncnc2)c2ccc(OC(F)F)c(OCc3ccccc3)c2)cc1 [Compound 214]
73.1 to 74.1 | CCOc1cc(N(Cc2cnc(C)s2)c2ccc(C(=O)O)cc2)ccc1OC(F)F [Compound 225]
99.7 to 105 | COc1ccc(N(Cc2cccnc2)c2cccc(C3NC(=O)NC3=O)c2)cc1OC1CCCC1 (centres unmarked) [Compound 239]
108 to 112.5 | COc1ccc(N(Cc2cccnc2)c2ccc(C3NC(=O)NC3=O)cc2)cc1OC1CCCC1 (centres unmarked) [Compound 245]
63.1 to 82.3 | O=C1NC(=O)C(c2cccc(N(Cc3cncs3)c3ccc(OC(F)F)c(OC(F)F)c3)c2)N1 (centres unmarked) [Compound 257]
178.4 to 178.9 | CCOc1cc(-c2ncc(CN(c3ccc(C(=O)O)cc3)c3ccc(OC(F)F)c(OCC)c3)o2)ccc1OC(F)F [Compound 273]
177.6 to 178.9 | CCOc1cc(N(Cc2cccnc2)c2ccc(C(=O)O)cc2)ccc1OC(F)F [Example 11, 4-[(4-Difluoromethoxy-3-ethoxy-phenyl)-pyridin-3-ylmethyl-amino]-benzoic acid]
183.7 to 184.9 | COc1cc(N(Cc2cccnc2)c2ccc(C(=O)O)cc2)ccc1OC(F)F [Example 14, 4-[(4-Difluoromethoxy-3-methoxy-phenyl)-pyridin-3-ylmethyl-amino]-benzoic acid]
